# Assays:
# Pseudomonas aeruginosa = assay: Combined in vitro use, checkerboard dilution method; type: cell-based
# Procedure, shortened: (§1)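 Checkerboard two-fold dilutions of drug (2,048 μg/mL stock) plus lactamase or efflux pump inhibitor in MH broth, inoculated with bacteria at 6×10^5 CFU/mL (suspension concentration), 37° C for 18 hours. Growth scored visually. FICI computed from MICs in combination versus alone; triplicates, three separate days, averaged.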
# Escherichia coli = assay: as above; type: cell-based
# Procedure, shortened: as §1
compound,measurement,setting,value
CC1(C)[C@H](NC(=O)/C(=N\OC2(C(=O)O)CC2)c2csc(N)n2)C(=O)N1OS(=O)(=O)O [Compound of formula (I-1)],reduction of MIC values on combination,"Pseudomonas aeruginosa; combined with PAβN, Pseudomonas aeruginosa ATCC27853 and PAO1 (CCPM(A)-P-09000032)",eight-fold
same,reduction of MIC value on combination,"Pseudomonas aeruginosa; combined with PAβN, Pseudomonas aeruginosa CCPM(A)-P-091626 (CRPA)",four-fold
same,MIC in combination,"Pseudomonas aeruginosa; compound of formula (I-1) combined with PAβN, Pseudomonas aeruginosa ATCC27853",2 µg/mL
same,MIC in combination,"Pseudomonas aeruginosa; compound of formula (I-1) combined with PAβN, Pseudomonas aeruginosa CCPM(A)-P-091626(CRPA)",8 µg/mL
same,MIC in combination,"Pseudomonas aeruginosa; compound of formula (I-1) combined with PAβN, Pseudomonas aeruginosa PAO1(CCPM(A)-P-09000032)",2 µg/mL
same,MIC in combination,"Pseudomonas aeruginosa; compound of formula (I-1) combined with berberine, Pseudomonas aeruginosa ATCC27853",16 µg/mL
same,MIC in combination,"Pseudomonas aeruginosa; compound of formula (I-1) combined with berberine, Pseudomonas aeruginosa CCPM(A)-P-091626(CRPA)",32 µg/mL
same,MIC in combination,"Pseudomonas aeruginosa; compound of formula (I-1) combined with berberine, Pseudomonas aeruginosa PAO1(CCPM(A)-P-09000032)",16 µg/mL
same,MIC in combination,"Pseudomonas aeruginosa; compound of formula (I-1) combined with conessine, Pseudomonas aeruginosa PAO1(CCPM(A)-P-09000032)",16 µg/mL
same,MIC in combination,"Escherichia coli; compound of formula (I-1) combined with avibactam, Escherichia coli ATCC 2469",0.125 µg/mL
same,MIC in combination,"Escherichia coli; compound of formula (I-1) combined with avibactam, Escherichia coli CCPM(A)-P-071301",0.25 µg/mL
same,MIC in combination,"Escherichia coli; compound of formula (I-1) combined with vaborbactam, Escherichia coli CCPM(A)-P-071301",0.5 µg/mL
